For data set [1], the system named is leukemia cell line (HL-60). Put plainly: Differentiation inducing effect, NBT reduction method. The data set is classed as cell-based, human. Particulars: for % of Differentiation: 3 days. As to the method:
For measuring the differentiation inducing effect to acute bone merrow leukemia cell line (HL-60) by indirubin AGM compound, NBT (nitroblue tetrazolium) reduction reaction method is employed. The leukemia cell line is diluted into 2×10^5 cfu/ml. […] Incubated cells are washed with phosphate buffered saline (PBS). Then, they are further incubated in PBS solution containing 0.1% NBT and 200 ng/ml of PMA (phorbol 12-myristate 13-acetate) for 30 minutes at 37° C. Incubated cells are centrifuged and collected cells are washed with PBS solution. Using cell number counter, differentiated cells forming nitroblue formazan among total cells are counted.

Data set [2] concerns human lung cancer cell line (A549). Put plainly: Inhibition of cancer cell line proliferation, A549. The following applies: 96 h, 3˜4 days incubation, absorbance at 515 nm. The data set is classed as cell-based. As to the method: (§1) For measuring the proliferation inhibition by indirubin compound, the method disclosed in K. Likhitwitayawuid et al. Journal. Nat. Prod. […] Followings are simple description of this method. The cancer cell line is diluted into 5×10^4 cfu/ml. Then, various concentrations of test compounds are added to 96 well microtiter plate containing diluted cell line. After incubating test plate for 3˜4 days at 37° C., the test plate is dried and Tris-base is added. Then, using ELISA plate detector, the absorbance at 515 nm is measured. IC50 is measured by non-linear regression method.

The subject of data set [3] is human stomach cancer cell line (SNU-638). Put plainly: Inhibition of cancer cell line proliferation, SNU-638. Particulars: 96 h, 3˜4 days incubation, absorbance at 515 nm. The data set is classed as cell-based. The protocol: as §1
The test system of data set [4] is human leukemia cell line (HL-60). Put plainly: Differentiation with low concentration 1,25-(OH)2D3 or ATRA, NBT reduction method. The data set is classed as cell-based. The protocol: For measuring the differentiation inducing effect to acute bone merrow leukemia cell line (HL-60) by indirubin AGM compound, NBT (nitroblue tetrazolium) reduction reaction method is employed. The leukemia cell line is diluted into 2×10^5 cfu/ml. After treating 20 μM and 1 μM concentrations of test compounds, test plate is incubated for 3 days at 37° C. in 5% CO2 incubator. Incubated cells are washed with phosphate buffered saline (PBS). Then, they are further incubated in PBS solution containing 0.1% NBT and 200 ng/ml of PMA (phorbol 12-myristate 13-acetate) for 30 minutes at 37° C. Incubated cells are centrifuged and collected cells are washed with PBS solution. Using cell number counter, differentiated cells forming nitroblue formazan among total cells are counted.
Next, we test if AGM compound of present invention can synergically induce the differentiation of acute bone merrow leukemia cell line when it is treated with low concentration of 1,25-dihydroxyvitamin D3[1,25-(OH)2D3] or all-trans retinoic acid (ATRA) known as differentiation inducing agent. […] […] As a positive control, conventional differentiation inducing agent is used.

In data set [5] the test system is human abdominal cavity cancer cell line (HT 1080). Put plainly: Inhibition of cancer cell line proliferation, HT 1080. The data set is classed as cell-based. The following applies: HT-1080, 96 h, HT108, 3˜4 days incubation, absorbance at 515 nm. The protocol:
as §1

The subject of data set [6] is human cancer cell line. Put plainly: Inhibition of cancer cell line proliferation, overall conclusion. The data set is classed as cell-based. Particulars: conclusion from Table 2. The protocol: as §1
Data set [7] has as its system human leukemia cell line (HL-60). Put plainly: Inhibition of cancer cell line proliferation, HL-60. The data set is classed as cell-based. Particulars: HL-60, 96 h, HL60, 3˜4 days incubation, absorbance at 515 nm. The protocol: as §1
Data set [8] deals with human colon cancer cell line (Col2). Put plainly: Inhibition of cancer cell line proliferation, Col2. Particulars: 96 h, 3˜4 days incubation, absorbance at 515 nm. The data set is classed as cell-based. As to the method: as §1
Data set [9] concerns human cell line (HT 1080). Put plainly: Inhibition of cancer cell line proliferation, HT 1080. The data set is classed as cell-based. Particulars: HT-1080, 96 h, read-out: IC50 HT108. The protocol:
as §1

Setting [10] is: 1 μM compound with 5 nM of 1,25-(OH)2D3.
The mark [11] stands for this setting: 1 μM compound with 50 nM of ATRA.

Some results are limits rather than exact numbers.

In the case of `O=C1Nc2ccc(Cl)cc2C1=C1Nc2ccccc2C1=NO` [AGM014, 5′-chloro-1H,1′H-[2,3′] biindolylidene-3,2′-dione 3-oxime], the “% of Differentiation” value in data set [1] (1 μM compound) is 40.97 ± 1.19%. The IC50 stood at 12.1 µM in data set [2]; 6.22 µM in [3]; 10.8 µM in data set [5]; 4.81 µM in [7]; 16.8 µM in data set [8]. Besides, the “% of Differentiation, 1,25-(OH)2D3” value in [4] (setting [10]) is 21.72 ± 1.22%. Besides, in [4] (setting [11]), the “% of Differentiation, all-trans RA” value worked out at 72.40 ± 3.05%. In addition, the “inhibitor against proliferation of human cancer cell line” value (“inhibitor against proliferation” for short) in [6] is listed as “effective inhibitor”.
`Cc1cc(Cl)cc2c1NC(=O)C2=C1Nc2ccccc2C1=NO` [AGM017, 5′-chloro-7′-methyl-1H,1′H-[2,3′] biindolylidene-3,2′-dione 3-oxime]: the figures for the “% of Differentiation” value in [1] (1 μM compound) and in data set [1] (20 μM compound) were 8.37 ± 0.45% and 2.62 ± 0.23%, respectively. Also, the IC50 in [2], in data set [3], in [9], in [7] and in [8] was more than 100 µM each time. The “% of Differentiation, 1,25-(OH)2D3” value in data set [4] (setting [10]) is 22.10 ± 0.90%. Moreover, the “% of Differentiation, all-trans RA” value in [4] (setting [11]) is 43.17 ± 1.56%.
As to `O=C1Nc2ccc([N+](=O)[O-])cc2C1=C1Nc2ccc(Br)cc2C1=NO` [AGM023, 5-bromo-5′-nitro-1H,1′H-[2,3′] biindolylidene-3,2′-dione 3-oxime], the “% of Differentiation” value in [1] (0.2 μM compound) stood at 18.38 ± 0.27%. Further, the IC50 was found to be 23.2 µM in [2]; 12.1 µM in [3]; 4.41 µM in [5]; 69.3 µM in data set [7]; 44.2 µM in data set [8]. For the same compound, in [4], the “cytotoxicity” value was “some cytotoxicity”. The “induction of differentiation with conventional differentiation inducing agent” value in data set [4] (0.2 μM) is on record as “high induction of differentiation”. Further, in data set [4] (0.2 μM compound with 5 nM of 1,25-(OH)2D3), the “% of Differentiation, 1,25-(OH)2D3” value is 89.76 ± 0.88%. For the same compound, in [4] (0.2 μM compound with 50 nM of ATRA), the “% of Differentiation, all-trans RA” value worked out at 90.85 ± 0.36%. In data set [6], the “inhibitor against proliferation” value is recorded as “effective inhibitor”.
Consider `Cc1ccc2c(c1)C(=C1Nc3ccccc3C1=O)C(=O)N2` [AGM024, 5′-methyl-1H,1′H-[2,3′] biindolylidene-3,2′-dione], for which the “% of Differentiation” value in [1] (1 μM compound) was found to be 24.89 ± 6.06%; in data set [1] (20 μM compound) it was 14.38 ± 0.42%. Further, the IC50 in [2], in [3], in [9], in [7] and in data set [8] was more than 100 µM in each case. For the same compound, the “% of Differentiation, 1,25-(OH)2D3” value in [4] (setting [10]) was 41.66 ± 0.40%. The “% of Differentiation, all-trans RA” value in data set [4] (setting [11]) came out at 51.01 ± 0.88%.
Take `O=C1Nc2ccc(Cl)cc2C1=C1Nc2ccccc2C1=O` [AGM025, 5′-chloro-1H,1′H-[2,3′] biindolylidene-3,2′-dione]: the “% of Differentiation” value in data set [1] (1 μM compound) came out at 26.18 ± 0.59%; in [1] (20 μM compound), 14.40 ± 0.82%. Also, the IC50 in data set [2], in data set [3], in data set [9], in [7] and in [8] was more than 100 µM in each case. In addition, the “% of Differentiation, 1,25-(OH)2D3” value in data set [4] (setting [10]) is reported as 49.41 ± 0.08%. For the same compound, the “% of Differentiation, all-trans RA” value in data set [4] (setting [11]) is given as 48.39 ± 1.48%.
`O=C1Nc2ccc(I)cc2C1=C1Nc2ccccc2C1=O` [AGM026, 5′-iodo-1H,1′H-[2,3′] biindolylidene-3,2′-dione]: the “% of Differentiation” value in data set [1] (1 μM compound) is recorded as 29.84 ± 1.12%; in data set [1] (20 μM compound), 22.23 ± 0.60%. The IC50 in data set [2], in data set [3], in data set [9], in data set [7] and in [8] was more than 100 µM each time. In addition, the “% of Differentiation, 1,25-(OH)2D3” value in data set [4] (setting [10]) is on record as 44.43 ± 0.09%. In addition, the “% of Differentiation, all-trans RA” value in [4] (setting [11]) was found to be 60.33 ± 0.51%.
On to `Cc1cc(C)c2c(c1)C(=C1Nc3ccccc3C1=O)C(=O)N2` [AGM027, 5′,7′-dimethyl-1H,1′H-[2,3′] biindolylidene-3,2′-dione], for which the figures for the “% of Differentiation” value in [1] (1 μM compound) and in data set [1] (20 μM compound) were 9.45 ± 0.92% and 4.75 ± 0.41%, respectively. Moreover, the IC50 in data set [2], in data set [3], in [9], in [7] and in data set [8] was more than 100 µM throughout. Moreover, the “% of Differentiation, 1,25-(OH)2D3” value in [4] (setting [10]) is on record as 21.74 ± 1.90%. The “% of Differentiation, all-trans RA” value in data set [4] (setting [11]) turned out to be 43.19 ± 1.73%.
For `Cc1cc(Cl)cc2c1NC(=O)C2=C1Nc2ccccc2C1=O` [AGM028, 5′-chloro-7′-methyl-1H,1′H-[2,3′] biindolylidene-3,2′-dione], the “% of Differentiation” value is given as 8.85 ± 2.20% in [1] (1 μM compound) and 0.70 ± 0.16% in data set [1] (20 μM compound). In addition, the IC50 in data set [2], in data set [3], in [9], in [7] and in [8] was more than 100 µM throughout. Moreover, the “% of Differentiation, 1,25-(OH)2D3” value in data set [4] (setting [10]) worked out at 35.22 ± 0.55%. Moreover, the “% of Differentiation, all-trans RA” value in data set [4] (setting [11]) was determined as 55.57 ± 1.11%.
As to `Nc1ccc2c(c1)C(=C1Nc3ccccc3C1=O)C(=O)N2` [AGM029, 5′-amino-1H,1′H-[2,3′] biindolylidene-3,2′-dione], in [1] (1 μM compound), the “% of Differentiation” value was 45.05 ± 0.59%. Moreover, the “induction of differentiation” value in data set [1] (at 20 μM concentration) is listed as “excellently induces the differentiation”. Besides, the IC50 was 33.2 µM in data set [2]; 21.1 µM in data set [3]; 5.41 µM in [9]; 59.3 µM in [7]; 31.2 µM in [8]. In data set [4] (setting [10]), the “% of Differentiation, 1,25-(OH)2D3” value was determined as 79.03 ± 0.55%. Further, the “% of Differentiation, all-trans RA” value in data set [4] (setting [11]) is listed as 78.81 ± 0.77%. The “inhibitor against proliferation” value in data set [6] is “effective inhibitor”.

These data come from patent US7572923B2, “Indirubin derivatives having anticancer property against human cancer cell line” (Anygen Co., Ltd., priority 2004, dated 2009).
